US20060057104A1, “Methods for stimulating tlr irf3 pathways for inducing anti-microbial, anti-inflammatory and anticancer responses” (THE Regents of the University of California Office of the …, priority 2002, published 2006)

Tests used:
MHV68 = MHV68 replication in BMMs treated with TLR ligands (immunoblot of viral proteins); type: cell-based, Murine gammaherpesvirus 68; conditions: MOI=5, 48 hours, 10, 1 or 0.1 ng/ml lipid A, 100 nM CpG, 10 μg/ml PGN, 1, 0.1 or 0.01 μg/ml poly I:C
Protocol: (E) BMMs were infected with MHV68 (moi=5) and simultaneously treated with the indicated TLR ligands (100 nM CpG; 10, 1, or 0.1 ng/ml lipid A; 10 μg/ml PGN; or 1, 0.1, or 0.01 μg/ml poly I:C). After 48 hr, cells were harvested and analyzed for MHV68 replication proteins by immunoblotting using rabbit anti-MHV68 antibodies.
Murine gammaherpesvirus 68 (MHV68) was produced and titered as previously described (Wu, T.-T., Tong, L., Rickabaugh, T., Speck, S., and Sun, R. (2001), J. Virol. 75, 9262-9273). For infection of macrophages, cells were simultaneously treated with PAMPs and infected with MHV68 at an MOI of 5. Following an incubation period of 48 hours cells were lysed in Laemmli buffer and 10% of total volume was subjected to SDS-PAGE, transferred to nitrocellulose, and MHV68 proteins detected by western blotting.
BMMs were simultaneously infected with MHV68 (MOI=5) and treated with various TLR ligands (10, 1 or 0.1 ng/ml lipid A, 100 nM CpG, 10 μg/ml PGN or 1, 0.1, or 0.01 μg/ml poly I:C) for 48 hours, and replication of viral proteins was then assayed by western blot analysis. […] This was true whether BMMs were treated with 10 or 20 μg/ml PGN and the inhibition was always considerably weaker than that caused by either 1 ng/ml lipid A or 1 μg/ml poly I:C.

[1] = tested on: RAW 264.7 murine macrophage cell line; assay: Apoptosis by TUNNEL assay in RAW 264.7 cells, laser scanner cytometry; type: cell-based; conditions: RAW 264.7, two 24 h intervals; 10 ng/ml Lipid A or 10 mg/ml poly I:C
Protocol: The RAW 264.7 murine macrophage cell line was treated for two 24 h intervals with media alone (control), 10 ng/ml Lipid A (Lipid A) or 10 mg/ml poly I:C. In addition, as a positive control for apoptosis, another set of cells was treated with 3% H2O2 for 2 hours. Following fixation and permeablization, apoptosis was measured by the TUNNEL assay using the Death kit (Roche). Apoptotic cells are visualized by an increase in fluorescence (FITC) and detected by laser scanner cytometry (LSC). […] The cell cycle is divided into G1 (red), S-phase (yellow) and G2/M (blue). Thus, TLR3/4 activation promotes apoptosis at all stages of the cell cycle (FIG. 16).

BMMs = assay: Quantitative real-time PCR gene expression in BMMs, wild-type and IFNAR deficient (Example 2); type: cell-based, murine; conditions: for TLR3 mRNA production / TLR4 mRNA production: primary macrophages, by four hours; for TLR3 mRNA production / TLR4 mRNA production / IFN-β and IP10 induction at one hour: poly I:C 1 μg/ml, lipid A 1 ng/ml; for IFI-204 expression at one hour / IFN-β and IP10 induction at one hour: wild type and IFNAR knockout macrophages; for ICAM1 mRNA (induction control): wild-type and knockout cells, one and four hours
Protocol: Murine BMMs were stimulated with poly(I:C) (10 μg/ml) or lipid A (1 ng/ml) for the indicated times. Total RiNA was isolated and converted to cDNA for quantitative real-time PCR analysis using primers specific for IFN-β, IFI-204, IP10, IκBα, or L32. Experiments were repeated three times, and the data are presented in relative expression units on a log scale, as described in Example 2, infra.
Primary macrophage cells derived from bone marrow cells were stimulated with poly I:C (1 μg/ml) or lipid A (1 ng/ml) for the indicated times, as described in Example 2, infra.
(B) TLR3 and TLR4 mRNA levels were also assessed in cells deficient in IFNAR, and cells stimulated with rIFN-β (10, 100, and 1000 U). Experiments were repeated at least two separate times, and data are presented in relative expression units. L32 was used to normalize all samples.
Both wild-type cells and cells deficient in IFNAR were stimulated with poly I:C (1 μg/ml) or lipid A (1 ng/ml) for either 1 or 4 h. IFN-β, IP10, IFI-204, ICAM1, and L32 mRNA levels were assessed. Data are representative of three independent experiments and presented in relative expression units, as described in Example 2, infra.
Murine bone marrow-derived macrophages (BMMs) were differentiated from marrow as previously described (Doyle, S. E., S. A. Vaidya, R. O'Connell, H. Dadgostar, P. W. Dempsey, T.-T. Wu, G. Rao, R. Sun, M. E. Haberland, R. L. Modlin, and G. Cheng. 2002. IRF3 mediates a TLR3/TLR4-specific antiviral gene program. Immunity 17:251). A129 (IFNAR-1^−/−) (Muller, U., U. Steinhoff, L. F. L. Reis, S. Hemmi, J. Pavlovic, R. M. Zinkernagel, and M. Aguet. 1994. Functional role of type I and type II interferons in antiviral defense. Science 264:1918) and B6129SF2/J wild type control mice were obtained from B&K Universal Ltd. and Jackson Laboratories, respectively. C57/B6 mice were used for all experiments not involving the A129 mice (Jackson Laboratories). Specific TLR activation was achieved using F-583 (Rd mutant) E. coli lipid A for TLR4 (Sigma), CpG oligonucleotides for TLR9 (Invitrogen) and poly I:C for TLR3 (Pharmacia). For experiments employing the TIRAP/MAL inhibitory peptide (CN Biosciences), cells were pretreated for 1 hour with 20 μM peptide or DMSO alone. Cells were then stimulated with PAMPs in the presence of the inhibitory peptide. For experiments using murine rIFN-β (R&D Systems), wild-type macrophage cells were stimulated with 10, 100, or 1000 units. Viral infection and harvest was performed using MHV68 at an M.O.I. of 5 as previously described (Doyle, S. E., S. A. Vaidya, R. O'Connell, H. Dadgostar, P. W. Dempsey, T.-T. Wu, G. Rao, R. Sun, M. E. Haberland, R. L. Modlin, and G. Cheng. 2002. IRF3 mediates a TLR3/TLR4-specific antiviral gene program. Immunity 17:251).
RNA was isolated by standard guanidium isothiocyanate methods. cDNA template for quantitative realtime PCR analysis was then synthesized and PCR was performed using the iCycler thermocycler (Bio-Rad) as previously described (Doyle, S. E., S. A. Vaidya, R. O'Connell, H. Dadgostar, P. W. Dempsey, T.-T. Wu, G. Rao, R. Sun, M. E. Haberland, R. L. Modlin, and G. Cheng. 2002. IRF3 mediates a TLR3/TLR4-specific antiviral gene program. Immunity 17:251). IFN-βIP10, IκBα and IFI-204 primers were the same as those previously described (Doyle, S. E., S. A. Vaidya, R. O'Connell, H. Dadgostar, P. W. Dempsey, T.-T. Wu, G. Rao, R. Sun, M. E. Haberland, R. L. Modlin, and G. Cheng. 2002. IRF3 mediates a TLR3/TLR4-specific antiviral gene program. Immunity 17:251). For other genes, the following primers were used: […]

Row | Substance | inhibition of MHV68 replication (MHV68) | increase in apoptotic cells [1] | expression of MyD88 and TIRAP/MAL (BMMs) | induction of IFN-β, IP10 and IFI-204 relative to TLR4 agonist lipid A (BMMs; BMMs, up to twelve hours, poly I:C 10 μg/ml vs lipid A 1 ng/ml) | IFI-204 expression by four hours, IFNAR knockout cells (BMMs) | IP10 expression by four hours, IFNAR knockout cells (BMMs) | TLR3 mRNA production (BMMs) | TLR4 mRNA production (BMMs) | IFI-204 expression by four hours, wild type cells (BMMs) | IP10 expression by four hours, wild type cells (BMMs) | IFI-204 expression at one hour (BMMs) | IFN-β and IP10 induction at one hour (BMMs) | ICAM1 mRNA (induction control) (BMMs)
1 | poly I:C | significantly inhibit MHV68 replication in a concentration dependent manner | 100 fold | can induce the expression | induced to higher levels and for extended periods of time | not detectable | remained relatively unchanged | caused the induction of TLR3 | but not TLR4 | induced to high levels | significantly enhanced | remained at basal levels | induced by one hour | elevated by one hour and remained high by four hours
2 | lipid A | significantly inhibit MHV68 replication in a concentration dependent manner | 10 fold | can induce the expression | – | not detectable | remained relatively unchanged | caused the induction of TLR3 | but not TLR4 | induced to high levels | significantly enhanced | remained at basal levels | induced by one hour | elevated by one hour and remained high by four hours
